Source: US8389569B2, “Polyspirane compounds, application thereof in the treatment of malaria or toxoplasmosis and method for preparing same” (Universite Joseph Fourier, priority 2007, dated 2013)
pIC50: −log10 of the molar value. Read-outs that look alike come from different tables or passages of the source.

Experiments:
[1] = test system: Plasmodium falciparum 3D7 strain (chloroquine-sensitive); test: Antimalarial activity in vitro, [3H]-hypoxanthine isotopic microtest; format: cell-based; conditions: asynchronous culture of infected erythrocytes, 48 hours + 18 hours [3H]-hypoxanthine, read-out: Plasmodium Proliferation test 3D7 strain (IC 50)
Procedure: Before experimentation, parasites of the 3D7 strain (chloroquine-sensitive, […] de Waal H. A. and F. […] ATCC no.: MRA-102) of Plasmodium falciparum are maintained in culture according to the Trager and Jansen method (Trager and Jansen, 1976). The antimalarial activity is measured in vitro on an asynchronous culture of erythrocytes infected with Plasmodium falciparum according to a modified method ([…] et al., 2003) based on the Desjardins isotopic microtest (Desjardins et al., 1979). […] After incubation for 48 hours, 0.5 μCi [^3H]-hypoxanthine (a precursor necessary for the synthesis of the radiolabelled nucleic acids of the parasite) are added to each microtitre plate well. After incubation for 18 hours, the hypoxanthine incorporation reaction is stopped and the cells lysed by direct freezing at -80° C. After thawing, the parasitic macromolecules, including the radiolabelled nucleic acids, are collected on a filter by means of a cell collector. A scintillation cocktail is added to the filter and the incorporated radioactivity is then measured with a scintillation counter. The radioactive background noise is measured starting from non-infected erythrocytes and subtracted from each filter measurement. The viability of the parasites treated with the compound to be tested is measured by their ability to synthesize nucleic acids from a radiolabelled precursor ([H^3]-hypoxanthine) in comparison with the control parasites cultured in the absence of the compound and is expressed as a percentage of the control. The measurements are analyzed by means of the Graphpad Prism software and the IC50 (concentration of compound able to inhibit 50% of the parasites' growth in vitro) is determined graphically. The results obtained appear in the form of IC50 in the table and are the result of two experiments carried out independently (different parasite cultures, different dilutions) in duplicate.

[2] = test system: Toxoplasma (RH-β1 strain) in HFF (Human Foreskin Fibroblast) cells; test: Antitoxoplasmic activity in vitro, colorimetric microtitre proliferation test; format: cell-based, Toxoplasma gondii
Procedure: The test implemented here is a colorimetric microtitre test. A monolayer of HFF (Human Foreskin Fibroblast) cells is infected, in a synchronous manner, by the parasite (10^4 parasites per well, RH-β1 strain). After washing, increasing doses (from 50 nM to 100 μM) of compound are added, except to the control well (addition, or no addition, of DMSO). After incubation for 48 hours, the β-galactosidase activity is measured by the addition of a substrate of the enzyme, chlorophenol red β-D-galactopyranoside (CPRG). The plates are again incubated (from 30 min to 16 h at 37° C.) before being read at 570 and 630 nm.

[3] = test system: synchronized Plasmodium falciparum parasites (ring, trophozoite, schizont); test: Minimum contact time necessary for cytotoxicity as a function of the parasitic stage (time-course); format: cell-based; conditions: 20×IC50, contact 30 min to 9 h; for activity on the different blood stages of the parasite (FIG. 11): viability as % of control; for speed and reversibility of the action (FIG. 11): washed, viability read at next cycle
Procedure: A culture of Plasmodium falciparum parasites is synchronized with VarioMACS (which retains the mature forms, which synthesize a pigment: haemozoin). After the culture has been passed through a VarioMACS column for 6 h, the synchronization range of the parasites is restricted by a second synchronization with 5% sorbitol (which retains only the young, so-called ring stage) at time t0, i.e. a short time after the invasion of healthy erythrocytes by the merozoites originating from the schizonts obtained by synchronization with the VarioMACS. The parasites are then brought into contact during each stage (ring, then trophozoite then schizont) with a fixed concentration of compound (20×IC50 previously defined by the above protocol) and for variable periods of time (30 min, 1 h 30 min, 3 h, 5 h, 7 h and 9 h in the case of parasites treated in the ring stage; 30 min, 1 h 30 min, 3 h, 5 h and 7 h in the case of parasites treated in the trophozoite and schizont stage). At the end of the defined period of contact, the erythrocyte mat is washed twice in complete medium. At t0+44h, (i.e. at the start of the subsequent parasitic life cycle), the erythrocyte mats are resuspended and redistributed into 96-well plates (in sextuplicate), 0.5 μCi of tritiated [^3H]-hypoxanthine is then added to the culture medium. From then on, the treatment is the same as that of the abovementioned experiment with one difference: the results obtained appear in the form of a graph which represents the viability of the parasites expressed as a control percentage as a function of the time for which the culture is in contact with the compound to be tested.

[4] = HFF monolayer infected with RH-β1 strain, 48 hours incubation, β-galactosidase activity (CPRG), read-out: Toxoplasma Proliferation test (IC 50)
[5] = Plasmodium falciparum, 3D7, Erythrocyte, 66 h
[6] = Toxoplasma, Fibroblast, 48 h, read-out: Toxoplasma Proliferation test (IC 50), HFF monolayer infected with RH-β1 strain, 48 hours incubation, β-galactosidase activity (CPRG)

Row | Molecule | pIC50 [1] | pIC50 [1, 5] | pIC50 [2, 6] | also measured
1 | 6-epi-aculeatin D [reference compound] | 6.35 |  |  | pIC50 [2, 4]: 6.42
2 | CCCOC(=O)C[C@@H]1C[C@@H](O)C[C@]2(CCC3(C=CC(=O)C=C3)O2)O1 (mixture of isomers) [10a, propyl (2S,4R,6R)- and (2R,4S,6S)-(4-Hydroxy-1′-oxo-1,7-dioxadispiro[5.1.5.2]pentadeca-9,12-dien-2-yl)-acetate] | 5.73 |  |  | pIC50 [2, 4]: 6.30
3 | CCCCCCC(=O)OC1CC2(CC[C@]3(C=CC(=O)C=C3)O2)O[C@@]2(CC[C@]3(C=CC(=O)C=C3)O2)C1 (mixture of isomers) [16a, (8R,10S,21S)- and (8S,10R,21R)-Heptanoate of 7,9,11-trioxatetraspiro[5.1.1.1.5^12.2^10.3^8.2^6]tetracosa-1,4,13,16-dien-3,15-on-21-yl] |  | 6.46 |  | 
4 | CCCCCCCCCCCCCC(=O)OC1CC2(CC[C@]3(C=CC(=O)C=C3)O2)O[C@@]2(CC[C@]3(C=CC(=O)C=C3)O2)C1 (mixture of isomers) [16c, (8R,10S,21S)- and (8S,10R,21R)-Tetradecanoate of 7,9,11-trioxatetraspiro[5.1.1.1.5^12.2^10.3^8.2^6]tetracosa-1,4,13,16-dien-3,15-on-21-yl] |  | 7.09 | 6.46 | activity on the different blood stages of the parasite (FIG. 11) [3]: active on the different blood stages (rings, trophozoites and schizonts); speed and reversibility of the action (FIG. 11) [3]: extremely rapid and is not reversible
5 | CCCCCCCCCCOC(=O)C[C@@H]1C[C@@H](O)C[C@]2(CCC3(C=CC(=O)C=C3)O2)O1 (racemic) [10b, decyl (2S,4R,6R)- and (2R,4S,6S)-(4-Hydroxy-11-oxo-1,7-dioxadispiro[5.1.5.2]pentadeca-9,12-dien-2-yl)-acetate] |  | 6.18 | 6.47 | 
6 | CCCCCCCCCCCCCCCCCCOC(=O)C[C@@H]1C[C@@H](O)C[C@]2(CCC3(C=CC(=O)C=C3)O2)O1 (racemic) [10c, octadecyl (2S,4R,6R)- and (2R,4S,6S)-(4-Hydroxy-11-oxo-1,7-dioxadispiro[5.1.5.2]pentadeca-9,12-dien-2-yl)-acetate] |  | 6.11 | 5.62 | 
7 | CCCCCCN(CCCCCC)C(=O)C[C@@H]1C[C@@H](O)C[C@]2(CCC3(C=CC(=O)C=C3)O2)O1 (racemic) [10e, (2S,4R,6R)- and (2R,4S,6S)—N,N-dihexyl-2-(4-hydroxy-11-oxo-1,7-dioxadispiro[5.1.5.2]pentadeca-9,12-dien-2-yl)-acetamide] |  | 6.05 |  | 
8 | CCCCCCCCCCOC(=O)CC1CC(O)C[C@@]2(CCC3(C=CC(=O)C=C3)O2)O1 (mixture of isomers) [11b, (2S,4R,6S)- and decyl (2R,4S,6R)-(4-Hydroxy-11-oxo-1,7-dioxadispiro[5.1.5.2]pentadeca-9,12-dien-2-yl)-acetate] |  | 5.87 | 5.79 | 
9 | CCCCCCCCCCCCCCCCCCOC(=O)C[C@@H]1C[C@H](O)C[C@]2(CCC3(C=CC(=O)C=C3)O2)O1 (racemic) [12c, octadecyl (2S,4S,6R)- and (2R,4R,6S)-(4-Hydroxy-11-oxo-1,7-dioxadispiro[5.1.5.2]pentadeca-9,12-dien-2-yl)-acetate] |  | 5.99 | 5.45 | 
10 | CCCCCCCCCCCCCCCCCCOC(=O)C[C@@H]1C[C@H](O)C[C@@]2(CCC3(C=CC(=O)C=C3)O2)O1 (racemic) [13c, octadecyl (2S,4S,6S)- and (2R,4R,6R)-(4-Hydroxy-11-oxo-1,7-dioxadispiro[5.1.5.2]pentadeca-9,12-dien-2-yl)-acetate] |  | 5.95 | 5.45 | 
11 | O=C1C=CC2(C=C1)CC[C@]1(CC(O)C[C@@]3(CCC4(C=CC(=O)C=C4)O3)O1)O2 (stereo partly drawn) [4a, (8R,10S,21S)- and (8S,10R,21R)-21-Hydroxy-7,9,11-trioxatetraspiro[5.1.1.1.5^12.2^10.3^8.2^6]tetracosa-1,4,13,16-dien-3,15-one] | 6.38 |  |  | pIC50 [2, 4]: 6.76
12 | O=C1C=C[C@]2(C=C1)CCC1(CC(O)C[C@]3(CC[C@@]4(C=CC(=O)C=C4)O3)O1)O2 (stereo partly drawn) [4b, (8R,10R,21S)-21-Hydroxy-7,9,11-trioxatetraspiro[5.1.1.1.5^12.2^10.3^8.2^6]tetracosa-1,4,13,16-dien-3,15-one] |  | 6.23 | 5.82 | 
13 | CCCCCCC(=O)OC1CC2(CC[C@]3(C=CC(=O)C=C3)O2)O[C@@]2(CC[C@]3(C=CC(=O)C=C3)O2)C1 (stereo partly drawn) [16b, (8R,10R,21S)-Heptanoate of 7,9,11-trioxatetraspiro[5.1.1.1.5^12.2^10.3^8.2^6]tetracosa-1,4,13,16-dien-3,15-on-21-yl] | 6.48 |  |  | 
14 | CCCCCCCCCCCCCC(=O)OC1CC2(CC[C@]3(C=CC(=O)C=C3)O2)O[C@@]2(CC[C@]3(C=CC(=O)C=C3)O2)C1 (stereo partly drawn) [16d, (8R,10R,21S)-Tetradecanoate of 7,9,11-trioxatetraspiro[5.1.1.1.5^12.2^10.3^8.2^6]tetracosa-1,4,13,16-dien-3,15-on-21-yl] | 7.04 |  |  | activity on the different blood stages of the parasite (FIG. 11) [3]: active on the different blood stages (rings, trophozoites and schizonts); speed and reversibility of the action (FIG. 11) [3]: extremely rapid and is not reversible; pIC50 ([2]; read-out: Toxoplasma Proliferation test (IC 50), HFF monolayer infected with RH-β1 strain, 48 hours incubation, β-galactosidase activity (CPRG)): 6.20
15 | CCCCCCCCCCCCCC(=O)CC(=O)OC1C[C@]2(CCC3(C=CC(=O)C=C3)O2)O[C@]2(CCC3(C=CC(=O)C=C3)O2)C1 (stereo partly drawn) [16e, (8R,10S,21S)- and (8S,10R,21R)-3-Oxohexadecanoate of 7,9,11-trioxatetraspiro[5.1.1.1.5^12.2^10.3^8.2^6]tetracosa-1,4,13,16-dien-3,15-on-21-yl] | 6.91 |  |  | 
16 | CCCCCCCCCCCCC[C@@H]1C[C@@H](O)C[C@]2(CCC3(C=CC(=O)C=C3)O2)O1 [Natural aculeatin A, aculeatin A, reference compound] | 6.54 |  |  | pIC50 [2, 4]: 6.51
17 | CCCCCCCCCCCCC[C@@H]1C[C@H](O)C[C@]2(CCC3(C=CC(=O)C=C3)O2)O1 [Natural aculeatin B, aculeatin B, reference compound] | 6.34 |  |  | pIC50 [2, 4]: 6.44
